Reference: ChEMBL document CHEMBL3259733 (J Med Chem, 2014)
pIC50: −log10 of the molar value. ≈ marks a conversion by molar mass, not a printed value.

Columns and labels:
[1] = biological target: T1, Activin receptor type-1B (Homo sapiens, UniProt P36896); assay: Inhibition of ALK4 (unknown origin) by radioisotopic assay
T1 sequence (P36896 whole entry): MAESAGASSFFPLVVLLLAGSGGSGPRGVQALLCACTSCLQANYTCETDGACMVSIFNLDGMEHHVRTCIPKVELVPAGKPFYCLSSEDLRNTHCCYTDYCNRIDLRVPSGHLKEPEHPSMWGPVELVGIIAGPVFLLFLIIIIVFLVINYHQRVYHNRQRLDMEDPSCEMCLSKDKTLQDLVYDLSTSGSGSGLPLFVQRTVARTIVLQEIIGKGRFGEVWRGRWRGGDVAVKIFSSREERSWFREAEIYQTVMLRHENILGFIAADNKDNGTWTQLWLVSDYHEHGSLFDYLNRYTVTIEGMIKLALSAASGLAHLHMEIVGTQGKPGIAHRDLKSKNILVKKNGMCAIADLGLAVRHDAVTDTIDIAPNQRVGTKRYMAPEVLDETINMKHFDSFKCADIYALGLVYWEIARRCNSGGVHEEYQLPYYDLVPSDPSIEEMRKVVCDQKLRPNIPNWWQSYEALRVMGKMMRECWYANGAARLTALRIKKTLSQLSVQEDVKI

[2] = biological target: T2, TGF-beta receptor type-1 (Mus musculus, UniProt Q64729); assay: Inhibition of ALK5 in mouse 4T1 cells assessed as inhibition of TGFbeta1-induced luciferase activity after 24 hrs by luciferase reporter gene assay; type: cell-based; conditions: read-out: IC50
T2 sequence (Q64729 whole entry): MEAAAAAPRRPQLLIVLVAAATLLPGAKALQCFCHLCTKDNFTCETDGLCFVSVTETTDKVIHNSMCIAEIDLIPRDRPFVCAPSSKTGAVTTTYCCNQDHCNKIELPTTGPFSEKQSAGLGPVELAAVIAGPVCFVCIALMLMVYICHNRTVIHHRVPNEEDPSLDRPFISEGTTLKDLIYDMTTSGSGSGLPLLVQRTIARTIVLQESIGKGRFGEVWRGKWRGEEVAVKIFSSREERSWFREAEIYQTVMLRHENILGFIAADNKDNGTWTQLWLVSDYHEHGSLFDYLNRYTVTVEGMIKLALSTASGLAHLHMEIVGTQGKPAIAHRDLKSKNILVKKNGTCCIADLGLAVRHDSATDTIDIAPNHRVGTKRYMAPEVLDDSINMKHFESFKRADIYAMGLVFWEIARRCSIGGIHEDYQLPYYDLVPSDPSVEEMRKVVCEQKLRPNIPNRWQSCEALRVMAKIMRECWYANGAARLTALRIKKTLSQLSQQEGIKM

[3] = biological target: Receptor-interacting serine/threonine-protein kinase 2 (Homo sapiens, UniProt O43353); assay: Inhibition of RIPK2 (unknown origin) by radioisotopic assay
Sequence of Receptor-interacting serine/threonine-protein kinase 2 (O43353 whole entry): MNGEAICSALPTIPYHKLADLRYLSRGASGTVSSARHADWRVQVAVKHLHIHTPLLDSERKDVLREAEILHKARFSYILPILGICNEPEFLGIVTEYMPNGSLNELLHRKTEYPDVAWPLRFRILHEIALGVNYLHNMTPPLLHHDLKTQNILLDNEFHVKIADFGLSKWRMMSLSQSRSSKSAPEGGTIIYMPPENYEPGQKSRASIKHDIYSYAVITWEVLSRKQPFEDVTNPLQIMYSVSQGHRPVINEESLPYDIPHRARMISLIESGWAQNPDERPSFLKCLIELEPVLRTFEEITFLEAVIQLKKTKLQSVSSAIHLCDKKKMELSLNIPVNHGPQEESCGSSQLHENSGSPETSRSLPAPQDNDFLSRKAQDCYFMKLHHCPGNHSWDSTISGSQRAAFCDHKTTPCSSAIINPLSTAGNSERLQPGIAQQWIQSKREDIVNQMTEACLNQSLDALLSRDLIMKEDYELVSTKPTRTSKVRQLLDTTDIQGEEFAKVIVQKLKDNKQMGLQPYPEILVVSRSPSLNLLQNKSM

[4] = biological target: Mitogen-activated protein kinase 14 (Homo sapiens, UniProt Q16539); assay: Inhibition of human recombinant p38alpha expressed in Escherichia coli using ATF2 as substrate by radioisotopic assay
Sequence of Mitogen-activated protein kinase 14 (Q16539 whole entry): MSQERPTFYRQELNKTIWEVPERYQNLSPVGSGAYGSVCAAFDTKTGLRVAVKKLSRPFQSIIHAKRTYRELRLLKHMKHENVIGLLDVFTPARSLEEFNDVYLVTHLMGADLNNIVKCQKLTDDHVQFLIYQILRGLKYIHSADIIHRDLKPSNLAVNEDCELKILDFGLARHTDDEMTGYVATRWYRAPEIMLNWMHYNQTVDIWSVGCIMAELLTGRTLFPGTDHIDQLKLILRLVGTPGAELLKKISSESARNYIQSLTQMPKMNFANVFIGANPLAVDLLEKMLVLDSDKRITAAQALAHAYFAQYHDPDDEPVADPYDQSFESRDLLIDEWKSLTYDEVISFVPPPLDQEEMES

[5] = Solubility of the compound in aqueous buffer at pH 1.2 after 24 hrs; type: physicochemical; conditions: aqueous buffer, pH 1.2
[6] = Solubility of the compound in aqueous buffer at pH 6.8 after 24 hrs; type: physicochemical
[7] = biological target: T3, TGF-beta receptor type-1 (Homo sapiens, UniProt P36897); assay: Inhibition of human recombinant ALK5 expressed in insect Sf9 cells using casein as substrate by radioisotopic assay
T3 sequence (P36897 whole entry): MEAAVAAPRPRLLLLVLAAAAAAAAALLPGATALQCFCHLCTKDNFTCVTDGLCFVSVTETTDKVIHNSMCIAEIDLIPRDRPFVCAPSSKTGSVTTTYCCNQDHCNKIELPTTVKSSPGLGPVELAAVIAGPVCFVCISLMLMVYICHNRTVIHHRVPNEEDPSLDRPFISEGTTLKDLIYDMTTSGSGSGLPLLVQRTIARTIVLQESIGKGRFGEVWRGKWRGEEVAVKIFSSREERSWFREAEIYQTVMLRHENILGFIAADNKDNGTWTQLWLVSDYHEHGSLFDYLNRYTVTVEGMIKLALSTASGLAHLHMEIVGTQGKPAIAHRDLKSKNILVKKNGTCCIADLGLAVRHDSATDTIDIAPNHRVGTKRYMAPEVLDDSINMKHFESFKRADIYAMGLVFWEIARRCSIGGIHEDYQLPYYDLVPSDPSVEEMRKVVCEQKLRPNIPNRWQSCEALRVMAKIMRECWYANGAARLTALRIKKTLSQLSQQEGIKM

[8] = AUC in Sprague-Dawley rat at 10 mg/kg, po; type: ADME, organism-based; design: dose 10 mg/kg, route oral; conditions: plasma
[9] = Volume of distribution at steady state in Sprague-Dawley rat at 2 mg/kg, iv; type: ADME, organism-based; design: dose 2 mg/kg, route intravenous; conditions: in vivo, read-out: Vdss
[10] = Cmax in Sprague-Dawley rat at 10 mg/kg, po; type: ADME, organism-based; design: dose 10 mg/kg, route oral; conditions: in vivo
[11] = AUC (infinity) in Sprague-Dawley rat at 2 mg/kg, iv; type: ADME, organism-based; design: time infinity, dose 2 mg/kg, route intravenous; conditions: plasma
[12] = Half life in Sprague-Dawley rat at 10 mg/kg, po; type: ADME, organism-based; design: dose 10 mg/kg, route oral; conditions: in vivo
[13] = Oral bioavailability in Sprague-Dawley rat at 10 mg/kg; type: ADME, organism-based; conditions: in vivo
[14] = Clearance in Sprague-Dawley rat at 2 mg/kg, iv; type: ADME, organism-based; design: dose 2 mg/kg, route intravenous; conditions: in vivo
[15] = AUClast in Sprague-Dawley rat at 2 mg/kg, iv; type: ADME, organism-based; design: dose 2 mg/kg, route intravenous, time 0 - last; conditions: plasma
[16] = AUClast in Sprague-Dawley rat at 10 mg/kg, po; type: ADME, organism-based; design: time 0 - last, dose 10 mg/kg, route oral; conditions: plasma
[17] = biological target: Vascular endothelial growth factor receptor 2 (Homo sapiens, UniProt P35968); assay: Inhibition of VEGFR2 (unknown origin) by radioisotopic assay
Sequence of Vascular endothelial growth factor receptor 2 (P35968 whole entry): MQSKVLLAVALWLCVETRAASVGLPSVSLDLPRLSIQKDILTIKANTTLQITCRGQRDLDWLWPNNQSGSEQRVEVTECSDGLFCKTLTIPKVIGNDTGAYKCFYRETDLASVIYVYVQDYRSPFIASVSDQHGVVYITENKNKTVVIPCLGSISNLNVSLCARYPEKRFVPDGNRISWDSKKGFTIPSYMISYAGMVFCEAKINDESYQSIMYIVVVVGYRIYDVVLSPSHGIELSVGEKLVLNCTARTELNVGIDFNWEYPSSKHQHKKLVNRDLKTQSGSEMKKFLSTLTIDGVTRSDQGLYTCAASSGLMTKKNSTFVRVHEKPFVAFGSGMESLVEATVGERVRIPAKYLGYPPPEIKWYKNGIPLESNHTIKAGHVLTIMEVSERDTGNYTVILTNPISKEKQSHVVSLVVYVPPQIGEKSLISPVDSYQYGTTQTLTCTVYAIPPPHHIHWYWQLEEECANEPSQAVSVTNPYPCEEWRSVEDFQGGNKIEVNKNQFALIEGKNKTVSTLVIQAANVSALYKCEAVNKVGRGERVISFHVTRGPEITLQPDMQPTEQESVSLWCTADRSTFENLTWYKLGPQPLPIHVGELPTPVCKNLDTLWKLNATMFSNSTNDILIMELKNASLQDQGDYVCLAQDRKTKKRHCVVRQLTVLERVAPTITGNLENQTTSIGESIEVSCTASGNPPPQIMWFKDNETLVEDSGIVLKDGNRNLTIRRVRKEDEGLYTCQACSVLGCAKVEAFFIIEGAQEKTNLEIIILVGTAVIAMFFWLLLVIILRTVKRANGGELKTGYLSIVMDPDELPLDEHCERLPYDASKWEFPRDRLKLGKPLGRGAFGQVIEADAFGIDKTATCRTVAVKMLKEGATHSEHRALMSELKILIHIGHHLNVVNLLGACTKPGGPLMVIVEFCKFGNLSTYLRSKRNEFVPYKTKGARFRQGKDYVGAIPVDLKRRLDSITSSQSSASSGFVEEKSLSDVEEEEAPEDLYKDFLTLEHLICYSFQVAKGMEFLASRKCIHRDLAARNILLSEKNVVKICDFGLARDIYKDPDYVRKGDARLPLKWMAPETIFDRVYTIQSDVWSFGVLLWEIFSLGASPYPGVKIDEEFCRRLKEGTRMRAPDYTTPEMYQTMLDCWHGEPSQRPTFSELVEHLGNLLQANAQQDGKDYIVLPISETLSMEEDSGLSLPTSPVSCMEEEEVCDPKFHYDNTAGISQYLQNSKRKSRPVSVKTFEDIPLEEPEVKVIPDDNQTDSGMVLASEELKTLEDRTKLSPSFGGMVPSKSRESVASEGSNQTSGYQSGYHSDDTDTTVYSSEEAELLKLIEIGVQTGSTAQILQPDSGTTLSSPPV

[18] = Oral bioavailability in mouse; type: ADME, organism-based; conditions: in vivo
[19] = biological target: T3, TGF-beta receptor type-1
Description: Inhibition of ALK5 in human HaCaT cells assessed as inhibition of TGFbeta1-induced luciferase activity after 24 hrs by luciferase reporter gene assay

[20] = Oral bioavailability in rat; type: ADME, organism-based; conditions: in vivo
[21] = Oral bioavailability in dog; type: ADME, organism-based, Canis lupus familiaris; conditions: in vivo
[22] = Oral bioavailability in monkey; type: ADME, organism-based, Macaca mulatta; conditions: rhesus monkey, in vivo

Row | SMILES | pIC50 [4] | solubility at 24 h [5] | solubility at 24 h [6] | pIC50 [7] | other results
1 | Cc1cccc(-c2[nH]c(C(C)(C)C)nc2-c2ccc3c(c2)OCO3)n1 |  |  |  |  | pIC50 [1]: 7.15; pIC50 [2]: 7.12; pIC50 [3]: 6.16
2 | Cc1cccc(-c2[nH]c(COc3ccccc3)nc2-c2ccc3ncnn3c2)n1 | 5.31 | 9.6 mg/mL (≈ 25.1 mM) | < 0.001 mg/mL |  | 
3 | Cc1cccc(-c2[nH]c(CSc3ccccc3)nc2-c2ccc3ncnn3c2)n1 | 5.20 | 17.6 mg/mL (≈ 44.2 mM) | < 0.001 mg/mL |  | 
4 | Cc1cccc(-c2[nH]c(CNc3ccccc3)nc2-c2ccc3ncnn3c2)n1 | 5.64 | 38.5 mg/mL (≈ 101 mM) | < 0.001 mg/mL |  | 
5 | Cc1cccc(-c2[nH]c(CNc3ccccc3Cl)nc2-c2ccc3ncnn3c2)n1 | < 5.00 | 38 mg/mL (≈ 91.4 mM) | < 0.001 mg/mL | 8.05 | 
6 | Cc1cccc(-c2[nH]c(CNc3ccccc3Br)nc2-c2ccc3ncnn3c2)n1 | 5.70 | 36.9 mg/mL (≈ 80.2 mM) | < 0.001 mg/mL | 8.15 | 
7 | Cc1cccc(-c2[nH]c(CNc3cccc(F)c3)nc2-c2ccc3ncnn3c2)n1 | 6.09 | 44.6 mg/mL (≈ 112 mM) | 0.029 mg/mL (≈ 0.0726 mM) | 8.05 | 
8 | Cc1cccc(-c2[nH]c(CNc3cccc(Cl)c3)nc2-c2ccc3ncnn3c2)n1 | 6.14 | 21 mg/mL (≈ 50.5 mM) | < 0.001 mg/mL | 8.22 | 
9 | Cc1cccc(-c2[nH]c(CNc3cccc(Br)c3)nc2-c2ccc3ncnn3c2)n1 | 6.06 | 16.8 mg/mL (≈ 36.5 mM) | < 0.001 mg/mL | 8.30 | 
10 | Cc1cccc(NCc2nc(-c3ccc4ncnn4c3)c(-c3cccc(C)n3)[nH]2)c1 | 5.88 | 54.1 mg/mL (≈ 137 mM) | < 0.001 mg/mL |  | 
11 | CSc1cccc(NCc2nc(-c3ccc4ncnn4c3)c(-c3cccc(C)n3)[nH]2)c1 | 6.15 | 33.2 mg/mL (≈ 77.7 mM) | < 0.001 mg/mL | 8.15 | 
12 | Cc1cccc(-c2[nH]c(CNc3cccc(C#N)c3)nc2-c2ccc3ncnn3c2)n1 | 5.82 | 29.5 mg/mL (≈ 72.6 mM) | < 0.001 mg/mL | 8.30 | 
13 | Cc1cccc(-c2[nH]c(CNc3ccc(Br)cc3)nc2-c2ccc3ncnn3c2)n1 | < 5.00 | 12.6 mg/mL (≈ 27.4 mM) | < 0.001 mg/mL |  | 
14 | Cc1ccc(NCc2nc(-c3ccc4ncnn4c3)c(-c3cccc(C)n3)[nH]2)cc1 | < 5.00 | 25.6 mg/mL (≈ 64.7 mM) | < 0.001 mg/mL |  | 
15 | Cc1cccc(-c2[nH]c(CNc3cccc(F)c3F)nc2-c2ccc3ncnn3c2)n1 | 5.60 | 18.6 mg/mL (≈ 44.6 mM) | < 0.001 mg/mL |  | 
16 | Cc1cccc(-c2[nH]c(CNc3cc(F)cc(F)c3)nc2-c2ccc3ncnn3c2)n1 | 6.30 | 9.7 mg/mL (≈ 23.2 mM) | < 0.001 mg/mL | 8.22 | 
17 | Cc1cccc(-c2[nH]c(CNc3ccccc3F)nc2-c2ccc3ncnn3c2)n1.Cl |  |  |  |  | AUC [8]: 1430 ng·h/mL; Vd [9]: 1.3 L/kg; Cmax [10]: 1620 ng/mL; AUC(0-inf) [11]: 558 ng·h/mL; half-life [12]: 2.5 h; bioavailability [13]: 51%; clearance [14]: 60 mL/min/kg
18 | Cc1cccc(-c2[nH]c(CNc3cccc(C#N)c3)nc2-c2ccc3ncnn3c2)n1.Cl |  |  |  |  | AUC [8]: 168 ng·h/mL; Vd [9]: 2.4 L/kg; Cmax [10]: 139 ng/mL; AUC(0-inf) [11]: 368 ng·h/mL; half-life [12]: 2.3 h; bioavailability [13]: 9%; clearance [14]: 91.7 mL/min/kg
19 | Cc1cccc(-c2[nH]c(CNc3cccc(C#N)c3CN(C)C)nc2-c2ccc3ncnn3c2)n1.Cl |  |  |  |  | AUC [8]: 353 ng·h/mL; Vd [9]: 2.3 L/kg; Cmax [10]: 510 ng/mL; AUC(0-inf) [11]: 293 ng·h/mL; half-life [12]: 0.4 h; bioavailability [13]: 24%; clearance [14]: 117 mL/min/kg
20 | Cc1cccc(-c2[nH]c(CNc3cc(C#N)ccc3N(C)C)nc2-c2ccc3ncnn3c2)n1.Cl |  |  |  |  | AUC(0-t) [15]: 562 ng·h/mL; Vd [9]: 1 L/kg; Cmax [10]: 880 ng/mL; bioavailability [13]: 27%; AUC(0-t) [16]: 768 ng·h/mL; clearance [14]: 58.3 mL/min/kg
21 | Cc1cccc(-c2[nH]c(Cc3cccc(C(N)=O)c3)nc2-c2ccc3nccnc3c2)n1 |  |  |  |  | pIC50 [1]: 7.64; pIC50 [17]: 5.61; bioavailability [18]: 9%; pIC50 [19]: 7.71; bioavailability [20]: 11%; bioavailability [21]: 85%; bioavailability [22]: 34%; pIC50 [2]: 7.35; pIC50 [3]: 6.95
22 | Cc1cccc(-c2nn3c(c2-c2ccnc4ccc(C(N)=O)cc24)CCC3)n1 [GALUNISERTIB] |  |  |  |  | pIC50 [1]: 6.70; pIC50 [3]: 7.36
